This note sets out measurements from ChEMBL document CHEMBL4130574, “Discovery of novel 2,4-diarylaminopyrimidine analogues as ALK and ROS1 dual inhibitors to overcome crizotinib-resistant mutants including G1202R” (Eur J Med Chem, 2018).

One experiment relates to HCC78. The experiment in a line: Antiproliferative activity against human HCC78 cells harboring SLC34A2-ROS1 after 72 hrs by MTT assay. The format is functional, cell-based. Conditions: HCC78, 72 h. (In general: Formazan colour is commonly taken as a measure of viable cells.)
A further experiment relates to A549. The experiment in a line: cells. Conditions: Homo sapiens, A549, 72 h.
The next experiment deals with KARPAS-299. The experiment in a line: Antiproliferative activity against human KARPAS299 cells harboring NPM-ALK after 72 hrs by MTT assay. Conditions: KARPAS-299, 72 h. It counts as functional, cell-based.
A further experiment has as its system NCI-H2228. The experiment is described as follows: cells. Conditions: Homo sapiens, NCI-H2228, 72 h.
A further experiment relates to NCI-H460. The experiment is described as follows: cells. As to conditions: Homo sapiens, NCI-H460, 72 h.

Description for A549: Antiproliferative activity against human A549 cells harboring EGFR after 72 hrs by MTT assay
Description for NCI-H2228: Antiproliferative activity against human NCI-H2228 cells harboring EML4-ALK after 72 hrs by MTT assay
Description for NCI-H460: Antiproliferative activity against human NCI-H460 cells after 72 hrs by MTT assay

In general, IC50 refers to the concentration needed to halve the response being measured. In the case of `CCN(CC)Cc1csc(-c2ccc(Nc3ncc(Cl)c(Nc4ccccc4S(=O)(=O)C(C)C)n3)c(OC(C)C)c2)n1`, the IC50 in the experiment with HCC78 was 920 nM; in the experiment with A549 it was above 1000 nM; in the experiment on KARPAS-299, 320 nM; with NCI-H2228, 500 nM; in the experiment with NCI-H460, 750 nM.
For `CC(C)Oc1cc(-c2nc(CNC3CC3)cs2)ccc1Nc1ncc(Cl)c(Nc2ccccc2S(=O)(=O)C(C)C)n1` the same measures were above 1000 nM, above 1000 nM, 240 nM, 370 nM and above 1000 nM.
For `CC1CCN(Cc2csc(-c3ccc(Nc4ncc(Cl)c(Nc5ccccc5S(=O)(=O)C(C)C)n4)c(OC(C)C)c3)n2)CC1` the same measures were above 1000 nM, above 1000 nM, 240 nM, 280 nM and above 1000 nM.
The like results for `CC(C)Oc1cc(-c2nc(CN3CCCC3)cs2)ccc1Nc1ncc(Cl)c(Nc2ccccc2S(=O)(=O)C(C)C)n1` were, in that order, above 1000 nM, above 1000 nM, 190 nM, 350 nM and above 1000 nM.
On to `COc1cc(-c2nc(CN3CCCC3)cs2)ccc1Nc1ncc(Cl)c(Nc2ccccc2S(=O)(=O)C(C)C)n1`, for which the IC50 in the experiment with HCC78 was 780 nM; with A549, above 1000 nM; in the experiment on KARPAS-299 it was 140 nM; in the experiment with NCI-H2228, 340 nM; with NCI-H460, above 1000 nM.
Turning to `COc1cc(-n2cc(CN3CCC[C@H]3CO)nn2)ccc1Nc1ncc(Cl)c(Nc2ccccc2S(=O)(=O)C(C)C)n1`, the IC50 in the experiment with HCC78 was 520 nM; in the experiment on A549 it was 910 nM; in the experiment on KARPAS-299, 320 nM; with NCI-H2228, 380 nM; in the experiment on NCI-H460, above 1000 nM.
In the case of `COc1cc(-c2nc(CN3CCCCC3)cs2)ccc1Nc1ncc(Cl)c(Nc2ccccc2S(=O)(=O)C(C)C)n1`, the IC50 in the experiment with HCC78 is 430 nM; with A549 it was above 1000 nM; with KARPAS-299, 100 nM; with NCI-H2228, 180 nM; in the experiment with NCI-H460 it was above 1000 nM.
Regarding `CCN(CC)Cc1cn(-c2ccc(Nc3ncc(Cl)c(Nc4ccccc4S(=O)(=O)C(C)C)n3)c(OC)c2)nn1`, the IC50 with HCC78 was above 1000 nM; in the experiment on A549, above 1000 nM; in the experiment with KARPAS-299, 500 nM; in the experiment on NCI-H2228, above 1000 nM; in the experiment on NCI-H460, above 1000 nM.
On to `CC(C)Oc1cc(-c2nc(CN3CCCCC3)cs2)ccc1Nc1ncc(Cl)c(Nc2ccccc2S(=O)(=O)C(C)C)n1`, for which the IC50 is above 1000 nM in the experiment on HCC78; above 1000 nM with A549; 120 nM in the experiment with KARPAS-299; 230 nM with NCI-H2228; above 1000 nM with NCI-H460.
Consider `COc1cc(-n2cc(CN(C)C)nn2)ccc1Nc1ncc(Cl)c(Nc2ccccc2S(=O)(=O)C(C)C)n1`, for which the IC50 is 380 nM in the experiment on HCC78; above 1000 nM with A549; above 1000 nM in the experiment on KARPAS-299; 480 nM with NCI-H2228; above 1000 nM with NCI-H460.
For the molecule `COc1cc(-c2nc(CN3CCC[C@H]3CO)cs2)ccc1Nc1ncc(Cl)c(Nc2ccccc2S(=O)(=O)C(C)C)n1`, the half-inhibitory concentration (IC50) was 470 nM in the experiment with HCC78; above 1000 nM in the experiment with A549; 160 nM in the experiment with KARPAS-299; 230 nM in the experiment on NCI-H2228; above 1000 nM with NCI-H460.
In the case of `COc1cc(-n2cc(CN3CCN(S(C)(=O)=O)CC3)nn2)ccc1Nc1ncc(Cl)c(Nc2ccccc2S(=O)(=O)C(C)C)n1`, the IC50 with HCC78 is 520 nM; in the experiment with A549, 700 nM; with KARPAS-299, 140 nM; with NCI-H2228 it was 290 nM; in the experiment on NCI-H460, above 1000 nM.
Consider `Cc1cc(Nc2ncc(Cl)c(Nc3ccccc3S(=O)(=O)C(C)C)n2)c(OC(C)C)cc1C1CCNCC1` [CERITINIB], for which the IC50 with A549 is above 1000 nM; in the experiment with NCI-H2228, 99 nM; in the experiment on NCI-H460 it was above 1000 nM.
As to `CC(C)Oc1cc(-c2nc(CN3CCOCC3)cs2)ccc1Nc1ncc(Cl)c(Nc2ccccc2S(=O)(=O)C(C)C)n1`, the IC50 in the experiment on HCC78 was above 1000 nM; in the experiment on A549 it was above 1000 nM; with KARPAS-299, 140 nM; with NCI-H2228, 350 nM; in the experiment on NCI-H460, 690 nM.
